Measurements from the NIST ThermoML archive (doi:10.1021/je030177j).

Assay: mn = molality of the nth substance listed, in mol/kg
Conditions: Liquid, Capillary tube (Ostwald / Ubbelohde) method

O=S(=O)([O-])[O-].[Li+].[Li+] [lithium sulfate] + O
viscosity [mPa·s]
Conditions | 10000 kPa | 20000 kPa | 30000 kPa
485.13 K, m1 = 0.885 | – | – | 0.1871
485.17 K, m1 = 0.28 | 0.1424 | 0.1452 | 0.1475
490.35 K, m1 = 0.1 | 0.1297 | 0.1322 | 0.1354
490.76 K, m1 = 0.56 | 0.1538 | 0.1567 | 0.1595
492.49 K, m1 = 0.885 | 0.1725 | 0.1761 | 0.179
495.14 K, m1 = 0.28 | 0.1352 | 0.1377 | 0.14
500.43 K, m1 = 0.885 | 0.1653 | 0.1688 | 0.1722
501.3 K, m1 = 0.1 | 0.1228 | 0.125 | 0.1275
509.17 K, m1 = 0.885 | 0.158 | 0.1614 | 0.1649
510.12 K, m1 = 0.56 | 0.1391 | 0.142 | 0.1455
510.93 K, m1 = 0.1 | 0.1172 | 0.1199 | 0.1235
515.27 K, m1 = 0.28 | 0.1224 | 0.1247 | 0.1271
517.75 K, m1 = 0.885 | 0.1513 | 0.155 | 0.1586
521.75 K, m1 = 0.1 | 0.1115 | 0.1143 | 0.117
522.75 K, m1 = 0.56 | 0.1308 | 0.1341 | 0.1373
525.95 K, m1 = 0.28 | 0.1166 | 0.1196 | 0.1225
526.12 K, m1 = 0.885 | 0.1453 | 0.1491 | 0.1527
530.53 K, m1 = 0.1 | 0.1072 | 0.1097 | 0.1122
532.85 K, m1 = 0.56 | 0.125 | 0.1281 | 0.131
538.24 K, m1 = 0.885 | 0.1372 | 0.1408 | 0.1443
540.08 K, m1 = 0.28 | 0.1096 | 0.1125 | 0.1156
541.04 K, m1 = 0.1 | 0.1024 | 0.1052 | 0.1087
547.35 K, m1 = 0.1 | 0.0998 | 0.1027 | 0.1055
550.72 K, m1 = 0.885 | 0.1297 | 0.1335 | 0.1372
551.24 K, m1 = 0.56 | 0.1151 | 0.1184 | 0.1214
560.12 K, m1 = 0.28 | 0.1011 | 0.104 | 0.1075
560.18 K, m1 = 0.885 | 0.1246 | 0.1282 | 0.1318
560.43 K, m1 = 0.1 | 0.0948 | 0.0977 | 0.0999
560.72 K, m1 = 0.56 | 0.1106 | 0.1132 | 0.115
569.15 K, m1 = 0.1 | 0.0917 | 0.0945 | 0.0977
572.05 K, m1 = 0.56 | 0.1056 | 0.1092 | 0.1126
573.45 K, m1 = 0.28 | 0.0962 | 0.0995 | 0.1025
574.55 K, m1 = 0.885 | 0.1176 | 0.1217 | 0.1255
574.75 K, m1 = 0.1 | 0.0897 | 0.0928 | 0.0957
